Measured values from US8852556B2, “Animal model for evaluating vasomotor response in vivo” (Janssen Research & Development LLC, priority 2008, dated 2014).

Tests used:
[1] = test system: central ear artery of a rabbit; experiment: Rabbit central ear artery (CEA) vasomotor response, lumen diameter and area by ultrasonic imaging; type: in vivo; details: for CEA lumen area after norepinephrine and acetylcholine (acetylcholine-induced vasodilation response) / CEA lumen diameter after norepinephrine and acetylcholine (acetylcholine-induced vasodilation response): norepinephrine-preconstricted CEA; for CEA lumen area after norepinephrine and acetylcholine (acetylcholine-induced vasodilation response): vehicle group 0.6 mm^2; for CEA lumen diameter after norepinephrine and acetylcholine (acetylcholine-induced vasodilation response): vehicle group 0.8 mm
Method: A group of six rabbits was anesthetized with a mixture of ketamine (50 mg/kg)/xylazine ([…]) administered intramuscularly and placed on a warming pad to maintain body temperature. Rabbit ear pinnae were shaved and depilitated using an over-the-counter depilatory agent. A segment of about 2 cm of the dorsal surface over the CEA on the right ear was coated with warmed ultrasonic gel. The baseline diameter and area of the rabbit's CEA were evaluated using a 23.5 MHz ultrasonic probe (model RMV 708). The images were recorded on a VISUALSONICS VEVO 600 system where the CEA lumen diameters and areas were subsequently measured. The vessel lumen diameter and area were expressed as mean and standard error of the mean (SEM). Norepinephrine and acetylcholine were infused in the contralateral left ear vein through a 27-gauge butterfly needle infusion set connected to an infusion pump. Images were obtained at about 5 minute intervals throughout the infusion periods.
To confirm that acetylcholine-induced vasodilation was NO-dependent, a second group of six rabbits was dosed with either the nitric oxide synthase inhibitor L-NAME (400 μg/mL) mixed in TANG® flavored drinking water (N=3) or TANG® flavored drinking water alone (N=3) for 5 consecutive days. L-NAME, N(G)-nitro-L-arginine-methyl ester, is an arginine derivative that blocks normal nitric oxide-dependent vasodilation. The rabbit CEA were then imaged on day 6. The rabbits were allowed to recover for about one week and then in crossover fashion each group of 3 was given the opposite treatment for 5 days and then imaged on day 6.
(§1) In another group, six adult New Zealand male rabbits (2.5-3.5 kg) were dosed orally (gavage with feeding tube) with the Imwitor/Cremophor/Water vehicle for 4 consecutive days during week 1. The vehicle (10% Imwitor, 20% Cremophor RH40 and 70% water, a light milky compound solution) was given in a total volume of 3 mL/kg per day. On day 4, three hours after oral dosing with vehicle or drug, the rabbits were anesthetized and measured for the vehicle's effect on CEA vessel lumen as described above. After week 1, the rabbits were allowed to recover for 3 days and were then orally dosed with a test compound such as torcetrapib or compound 2 at about 30 mg/kg for 4 consecutive days during week 2. On the 4th day of week 2, rabbit CEA diameter changes in response to test compounds were assessed with infusion of norepinephrine followed by acetylcholine as described above. Rabbits were again allowed to recover for an additional week to allow for drug elimination and were then subjected to daily vehicle dosing and CEA diameter changes in response to test compounds were assessed as described above.
(§2) A series of 5 images (approximately 5 minutes apart) of the CEA were taken and used for baseline lumen diameter (mm) and area (mm^2) measurements, respectively. The adrenergic agonist norepinephrine was slowly infused at about 28 μg per minute and maintained for the duration of the procedure. An infusion of acetylcholine was administered in escalating doses at about 10, 17, 30 and 56 μg/min, each for 15 minutes, in conjunction with the infusion of norepinephrine. The images were collected several times during each infusion period of 15 minutes. After the final acetylcholine and concurrent norepinephrine infusion period, all infusions were terminated and the vessel was allowed to return to its original size. About two mL of blood were sampled from the non-imaged contralateral CEA immediately after the last measurement. All samples were collected into tubes containing EDTA and centrifuged at about 10,000 rpm for 6 minutes. Plasma was kept in −80° C. until analyzed for the concentration of the tested compounds. In addition, blood was taken from a naïve rabbit for generation of a standard drug concentration curve. […]

[2] = Plasma concentration of test compound after oral dosing in rabbits; type: in vivo, rabbit; details: 4 hours after the last dose; for concentration at 4 h: male, New Zealand, rabbit, plasma, rabbits, oral about 30 mg/kg for 4 days
Method: as §1
as §2, with “All samples were collected into tubes containing EDTA and centrifuged at about 10,000 rpm for 6 minutes.” left out, “compounds.” for “compounds. In addition, blood was taken from a naïve rabbit for generation of a standard drug concentration curve.”

systolic blood pressure = details: patients receiving torcetrapib; cited from earlier work
[3] = oral about 30 mg/kg for 4 days, compared to vehicle

| SMILES | effect on acetylcholine-induced vasodilation in norepinephrine-preconstricted CEA [1, 3] | CEA lumen area after norepinephrine and acetylcholine (acetylcholine-induced vasodilation response) ([1]; oral dose 30 mg/kg for 4 days) | CEA lumen diameter after norepinephrine and acetylcholine (acetylcholine-induced vasodilation response) ([1]; oral dose 30 mg/kg for 4 days) | concentration at 4 h [2] | further results |
| --- | --- | --- | --- | --- | --- |
| O[C@@H](CN1c2cccc(-c3cccc(OC(F)(F)F)c3)c2CC[C@@H]1c1cccc(OC(F)(F)C(F)F)c1)C(F)(F)F [Compound 2, 1,1,1-Trifluoro-3-[2-{3-[(1,1,2,2-tetrafluoroethyl)oxy]phenyl}-5-{3-[(trifluoromethyl)oxy]phenyl}-3,4-dihydroquinolin-1(2H)-yl]propan-2-ol] | does not affect | ~0.6 mm^2 | about 0.8 mm | 2580 ± 670 nM | plasma concentration of compound 2 relative to torcetrapib ([2]; same dose and regimen): approximately 2.5 fold |
| COC(=O)[C@@H](N)CCCNC(=N)N[N+](=O)[O-] [L-NAME, N(G)-nitro-L-arginine-methyl ester] |  |  |  |  | effect of L-NAME on acetylcholine-induced vasodilation in norepinephrine-preconstricted CEA ([1]; L-NAME 400 μg/mL in drinking water for 5 days, imaged day 6): inhibits this acetylcholine-induced vasodilation |
| NC[C@H](O)c1ccc(O)c(O)c1 [norepinephrine] |  |  |  |  | CEA lumen area during norepinephrine infusion ([1]; norepinephrine infused at about 28 μg per minute, baseline about 0.6-0.7 mm^2): about 0.2 mm^2; CEA lumen diameter during norepinephrine infusion ([1]; norepinephrine infused at about 28 μg per minute, baseline about 0.8-0.9 mm): about 0.5 mm |
| CCOC(=O)N1c2ccc(C(F)(F)F)cc2[C@@H](N(Cc2cc(C(F)(F)F)cc(C(F)(F)F)c2)C(=O)OC)C[C@H]1CC [torcetrapib, ethyl (2R,4S)-4-[[3,5-bis(trifluoromethyl)benzyl](methoxycarbonyl)amino]-2-ethyl-6-(trifluoromethyl)-3,4-dihydroquinoline-1(2H)-carboxylate] | inhibits the acetylcholine-induced vasodilation | 0.2 mm^2 | about 0.45 mm | ~1010 nM | effect on baseline CEA lumen diameter and area (basal vascular tone) [1, 3]: caused a measurable baseline vasoconstriction; baseline CEA lumen diameter ([1]; oral dose 30 mg/kg for 4 days, prior to norepinephrine or acetylcholine, anesthetized rabbits, vehicle group 0.85 mm): about 0.55 mm; baseline CEA lumen area ([1]; oral dose 30 mg/kg for 4 days, prior to norepinephrine or acetylcholine, vehicle group 0.65 mm^2): about 0.3 mm^2; systolic blood pressure in patients (systolic blood pressure): higher systolic blood pressure |
